Assay results reported in patent US12209092B2, “Inhibitors of GLI1 as therapeutic agents” (NEW YORK UNIVERSITY, priority 2018, dated 2025).
Like-named read-outs stand apart in the source and are kept apart here.

System: Gli1-mediated transcription
Assay: Gli1-mediated transcriptional luciferase reporter assay
Assay type: cell-based
Details: Shh-LIGHT2 cells, antagonist mode, purmorphamine 1.5 μM stimulation, 24 h
Procedure: Gli1-mediated transcriptional luciferase reporter assay was performed using Shh-LIGHT2 cells in order to evaluate the effects on activation and inhibition of Gli1-mediated transcription by the compounds of the disclosure. Brief assay procedure is provided below. […] Shh-LIGHT2 cells were harvested from about 80% confluent 10-cm dish using 0.25% Trypsin-EDTA solution. Medium was removed, and cells were washed with 5 mL DPBS and aspirated. Then, 1 mL 0.25% Trypsin-EDTA solution was added to a 10-cm dish. The dish was placed in the incubator for 1-3 minutes, or until cells have detached. 3 mL of cell growth medium (DMEM, 10% FBS, 1% PenStrep, 1% sodium pyruvate, and 1% GlutaMax) was added to the 10-cm dish, and the contents were transferred to a conical tube. […] The cell assay plate was removed from incubator after cells reached confluency. The culture medium was then manually removed from the cell plates, and the plates were centrifuged at 200 rpm for 30 seconds. […] After 30 min incubation of antagonist, cells were stimulated with agonist (purmorphamine, 5 μL, 1.5 μM final), then incubate for 24 h at 37° C./5% CO2. […] Luciferase assay: After incubation, the cell assay plate was allowed to acclimate to room temperature. Then, 20 μL of Duo-Glo® Luciferase Reagent (Promega) was added to each well of cell assay plate. The plate was briefly spun down, mixed, and incubated for 30 minutes at room temperature. The cell plate was read using luminometer for firefly luminescence activity. Then, 20 μL of Duo-Glo® Step&Glo® Reagent (Promega) was added to each well of cell assay plate. The plate was briefly spun down, mixed, and incubated for 30 minutes at room temperature. The cell plate was read using luminometer for Renilla luminescence activity. Ratio of firefly: Renilla luminescence was calculated for each well. The compound well ratio was normalized to the ratio from a control well.

[1] = firefly luminescence, read-out: Gli1 IC50 firefly
[2] = ratio of firefly:Renilla luminescence, read-out: Gli1 IC50 firefly:Renilla ratio

Structure (SMILES) | IC50 [1] | IC50 [2]
Clc1ccc2c(c1)CC(N1CCc3nc(-c4ccccc4Br)[nH]c3C1)CC2 (stereo not drawn) [Example 28, 2-(2-bromophenyl)-5-(7-chloro-1,2,3,4-tetrahydronaphthalen-2-yl)-4,5,6,7-tetrahydro-3H-imidazo[4,5-c]pyridine] | 100 to 490 nM | 100 to 490 nM
Clc1ccccc1-c1nc2c([nH]1)CN(C1CCc3cc(C4CC4)ccc3C1)CC2 (stereo not drawn) [Example 31, 2-(2-chlorophenyl)-5-(6-cyclopropyl-1,2,3,4-tetrahydronaphthalen-2-yl)-4,5,6,7-tetrahydro-3H-imidazo[4,5-c]pyridine] | 1000 to 50000 nM | 500 to 990 nM
Cc1cn(-c2ccc3c(c2)CCC(N2CCc4nc(-c5ccccc5Cl)[nH]c4C2)C3)cn1 (stereo not drawn) [Example 32, 2-(2-chlorophenyl)-5-(6-(4-methyl-1H-imidazol-1-yl)-1,2,3,4-tetrahydronaphthalen-2-yl)-4,5,6,7-tetrahydro-3H-imidazo[4,5-c]pyridine] | 1000 to 50000 nM | 1000 to 50000 nM
Clc1ccccc1-c1nc2c([nH]1)CN(C1CCc3ccc(C#CC4CC4)cc3C1)CC2 (stereo not drawn) [Example 35, 2-(2-chlorophenyl)-5-(7-(cyclopropylethynyl)-1,2,3,4-tetrahydronaphthalen-2-yl)-4,5,6,7-tetrahydro-3H-imidazo[4,5-c]pyridine] | 1000 to 50000 nM | 1000 to 50000 nM
Clc1ccccc1-c1nc2c([nH]1)CN(C1CCc3cccc(C4CC4)c3C1)CC2 (stereo not drawn) [Example 36, 2-(2-chlorophenyl)-5-(8-cyclopropyl-1,2,3,4-tetrahydronaphthalen-2-yl)-4,5,6,7-tetrahydro-3H-imidazo[4,5-c]pyridine] | 1000 to 50000 nM | 500 to 990 nM
Clc1cccc(-c2nc3c([nH]2)CN(C2CCc4ccc(Cl)cc4C2)CC3)c1 (stereo not drawn) [Example 42, 5-(7-chloro-1,2,3,4-tetrahydronaphthalen-2-yl)-2-(3-chlorophenyl)-4,5,6,7-tetrahydro-3H-imidazo[4,5-c]pyridine] | 1000 to 50000 nM | 1000 to 50000 nM
Clc1ccccc1-c1nc2c([nH]1)CN(C1Cc3ccccc31)CC2 (stereo not drawn) [Example 43, 5-(bicyclo[4.2.0]octa-1(6),2,4-trien-7-yl)-2-(2-chlorophenyl)-4,5,6,7-tetrahydro-3H-imidazo[4,5-c]pyridine] | > 30000 nM | 1000 to 50000 nM
Fc1cccc(-c2nc3c([nH]2)CN(C2CCc4ccc(F)cc4C2)CC3)c1 (stereo not drawn) [Example 51, 5-(7-fluoro-1,2,3,4-tetrahydronaphthalen-2-yl)-2-(3-fluorophenyl)-4,5,6,7-tetrahydro-3H-imidazo[4,5-c]pyridine] | 1000 to 50000 nM | 1000 to 50000 nM
Fc1ccccc1-c1nc2c([nH]1)CN(C1CCc3ncccc3C1)CC2 (stereo not drawn) [Example 55, 6-(2-(2-fluorophenyl)-3,4,6,7-tetrahydro-5H-imidazo[4,5-c]pyridin-5-yl)-5,6,7,8-tetrahydroquinoline] | 1000 to 50000 nM | 1000 to 50000 nM
Fc1ccccc1-c1nc2c([nH]1)CN(C1CCc3cc(Cl)ccc3C1)CC2 (stereo not drawn) [Example 70, 5-(6-chloro-1,2,3,4-tetrahydronaphthalen-2-yl)-2-(2-fluorophenyl)-4,5,6,7-tetrahydro-3H-imidazo[4,5-c]pyridine] | 1000 to 50000 nM | 1000 to 50000 nM
Fc1cc2c(cc1F)CC(N1CCc3nc(-c4ccccc4F)[nH]c3C1)CC2 (stereo not drawn) [Example 72, 5-(6,7-difluoro-1,2,3,4-tetrahydronaphthalen-2-yl)-2-(2-fluorophenyl)-4,5,6,7-tetrahydro-3H-imidazo[4,5-c]pyridine] | 1000 to 50000 nM | 1000 to 50000 nM
Fc1cc(F)c2c(c1)CC(N1CCc3nc(-c4ccccc4F)[nH]c3C1)CC2 (stereo not drawn) [Example 73, 5-(5,7-difluoro-1,2,3,4-tetrahydronaphthalen-2-yl)-2-(2-fluorophenyl)-4,5,6,7-tetrahydro-3H-imidazo[4,5-c]pyridine] | > 30000 nM | > 30000 nM
Clc1cccnc1-c1nc2c([nH]1)CN(C1CCc3cccc(Cl)c3C1)CC2 (stereo not drawn) [Example 77, 5-(8-chloro-1,2,3,4-tetrahydronaphthalen-2-yl)-2-(3-chloropyridin-.2-yl)-4,5,6,7-tetrahydro-3H-imidazo[4,5-c]pyndine] | 1000 to 50000 nM | 1000 to 50000 nM
Clc1cccc2c1CC(N1CCc3nc(-c4ccccn4)[nH]c3C1)CC2 (stereo not drawn) [Example 78, 5-(8-chloro-1,2,3,4-tetrahydronaphthalen-2-yl)-2-(pyridin-2-yl)-4,5,6,7-tetrahydro-3H-imidazo[4,5-c]pyridine] | 1000 to 50000 nM | 1000 to 50000 nM
Clc1ccccc1-c1nc2c([nH]1)CN(C1CCc3cccc(Cl)c31)CC2 (stereo not drawn) [Example 106, 5-(7-chloro-2,3-dihydro-1H-inden-1-yl)-2-(2-chlorophenyl)-4,5,6,7-tetrahydro-3H-imidazo[4,5-c]pyridine] | 1000 to 50000 nM | 1000 to 50000 nM
Clc1ccccc1-c1nc2c([nH]1)CN(C1CCc3cc(Br)ccc3C1)CC2 (stereo not drawn) [Example 109, 5-(6-bromo-1,2,3,4-tetrahydronaphthalen-2-yl)-2-(2-chlorophenyl)-4,5,6,7-tetrahydro-3H-imidazo[4,5-c]pyridine] | 1000 to 50000 nM | 1000 to 50000 nM
COc1cccc2c1CC(N1CCc3nc(-c4ccccc4Cl)n(CCO)c3C1)CC2 (stereo not drawn) [Example 130, 2-(2-(2-chlorophenyl)-5-(8-methoxy-1,2,3,4-tetrahydronaphthalen-2-yl)-4,5,6,7-tetrahydro-3H-imidazo[4,5-c]pyridin-3-yl)ethan-1-ol] | 1000 to 50000 nM | 1000 to 50000 nM

Further lines, results first:

IC50 [1] | IC50 [2] | Structure (SMILES)
< 100 nM | < 100 nM | COc1ccc(-c2nc3c([nH]2)CN(C2CCc4ccc(Cl)cc4C2)CC3)c(Cl)c1 (stereo not drawn) [Example 23, 5-(7-chloro-1,2,3,4-tetrahydronaphthalen-2-yl)-2-(2-chloro-4-methoxyphenyl)-4,5,6,7-tetrahydro-3H-imidazo[4,5-c]pyridine]
100 to 490 nM | < 100 nM | COc1ccc(Cl)c(-c2nc3c([nH]2)CN(C2CCc4ccc(Cl)cc4C2)CC3)c1 (stereo not drawn) [Example 24, 5-(7-chloro-1,2,3,4-tetrahydronaphthalen-2-yl)-2-(2-chloro-5-methoxyphenyl)-4,5,6,7-tetrahydro-3H-imidazo[4,5-c]pyridine]
1000 to 50000 nM | 1000 to 50000 nM | Clc1cc(Cl)c2c(c1)CCC(N1CCc3nc(-c4ccccc4Cl)[nH]c3C1)C2 (stereo not drawn) [Example 25, 2-(2-chlorophenyl)-5-(6,8-dichloro-1,2,3,4-tetrahydronaphthalen-2-yl)-4,5,6,7-tetrahydro-3H-imidazo[4,5-c]pyridine]
< 100 nM | 100 to 490 nM | Clc1ccccc1-c1nc2c([nH]1)CN(C1CCc3cccc(Br)c3C1)CC2 (stereo not drawn) [Example 26, 5-(8-bromo-1,2,3,4-tetrahydronaphthalen-2-yl)-2-(2-chlorophenyl)-4,5,6,7-tetrahydro-3H-imidazo[4,5-c]pyridine]
100 to 490 nM | < 100 nM | Clc1ccccc1-c1nc2c([nH]1)CN(C1CCc3ccc(Br)cc3C1)CC2 (stereo not drawn) [Example 27, 5-(7-bromo-1,2,3,4-tetrahydronaphthalen-2-yl)-2-(2-chlorophenyl)-4,5,6,7-tetrahydro-3H-imidazo[4,5-c]pyridine]
500 to 990 nM | 100 to 490 nM | Clc1ccc2c(c1)CC(N1CCc3nc(-c4ccc(Br)cc4Cl)[nH]c3C1)CC2 (stereo not drawn) [Example 29, 2-(4-bromo-2-chlorophenyl)-5-(7-chloro-1,2,3,4-tetrahydronaphthalen-2-yl)-4,5,6,7-tetrahydro-3H-imidazo[4,5-c]pyridine]
1000 to 50000 nM | 500 to 990 nM | Clc1ccc2c(c1)CC(N1CCc3nc(-c4cc(Br)ccc4Cl)[nH]c3C1)CC2 (stereo not drawn) [Example 30, 2-(5-bromo-2-chlorophenyl)-5-(7-chloro-1,2,3,4-tetrahydronaphthalen-2-yl)-4,5,6,7-tetrahydro-3H-imidazo[4,5-c]pyridine]
100 to 490 nM | 100 to 490 nM | Clc1ccccc1-c1nc2c([nH]1)CN(C1CCc3ccc(C4CC4)cc3C1)CC2 (stereo not drawn) [Example 34, 2-(2-chlorophenyl)-5-(7-cyclopropyl-1,2,3,4-tetrahydronaphthalen-2-yl)-4,5,6,7-tetrahydro-3H-imidazo[4,5-c]pyridine]
< 100 nM | < 100 nM | Clc1ccc2c(c1)CC(N1CCc3nc(-c4ccc(C5CC5)cc4Cl)[nH]c3C1)CC2 (stereo not drawn) [Example 37, 5-(7-chloro-1,2,3,4-tetrahydronaphthalen-2-yl)-2-(2-chloro-4-cyclopropylphenyl)-4,5,6,7-tetrahydro-3H-imidazo[4,5-c]pyridine]
100 to 490 nM | 100 to 490 nM | Cn1c(-c2ccccc2Cl)nc2c1CN(C1CCc3cccc(C4CC4)c3C1)CC2 (stereo not drawn) [Example 161, 2-(2-chlorophenyl)-5-(8-cyclopropyl-1,2,3,4-tetrahydronaphthalen-2-yl)-3-methyl-4,5,6,7-tetrahydro-3H-imidazo[4,5-c]pyridine]
